Measurements reported in ChEMBL document CHEMBL5550214, “Expanding Structure-Activity Relationships of Human Urotensin II Peptide Analogues: A Proposed Key Role of the N-Terminal Region for Novel Urotensin II Receptor Modulators” (J Med Chem, 2024).
pEC50: −log10 of the molar value. The source made the active and inactive calls. The rule behind the calls is not given here. Where a SMILES comes first, the peptide text is derived from it. Bridges are numbered along the chain shown (N, C = ends). [ ]: non-standard residue; d: D form. Pen = CC(C)(S)[C@H](N)C(=O)O; Orn = NCCC[C@H](N)C(=O)O

How the values were obtained:
[1] = target: T1, Urotensin-2 receptor (Homo sapiens) (UniProt Q9UKP6); experiment: Modulation of human UTR stably expressed in HEK293 cells assessed as increase in Ca2+ level at 0.01 to 1 nM by Fura 2-AM dye based calcium mobilization assay; assay type: functional, cell-based; conditions: filed as modulator, dose 0.01-1 nM
T1 sequence (whole entry): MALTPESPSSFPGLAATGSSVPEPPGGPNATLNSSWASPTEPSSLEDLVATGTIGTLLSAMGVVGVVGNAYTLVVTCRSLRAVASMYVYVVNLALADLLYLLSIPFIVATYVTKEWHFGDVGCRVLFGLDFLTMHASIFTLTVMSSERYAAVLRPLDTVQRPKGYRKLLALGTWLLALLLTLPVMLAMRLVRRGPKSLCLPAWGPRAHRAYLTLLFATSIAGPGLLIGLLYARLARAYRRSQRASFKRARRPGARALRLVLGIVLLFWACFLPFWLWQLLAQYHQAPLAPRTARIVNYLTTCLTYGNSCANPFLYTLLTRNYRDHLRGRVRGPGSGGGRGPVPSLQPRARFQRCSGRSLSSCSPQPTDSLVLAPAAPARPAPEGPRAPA

[2] = target: T1, Urotensin-2 receptor (Homo sapiens); experiment: Modulation of human UTR stably expressed in HEK293 cells assessed as increase in Ca2+ level at 0.1 to 100 nM by Fura 2-AM dye based calcium mobilization assay; assay type: functional, cell-based; conditions: dose 0.1-100 nM
Aortic ring [3] = experiment: Induction of contraction in Albino Wistar rat aortic ring at 1 to 30 nM; assay type: functional, tissue-based; conditions: Aorta, dose 1-30 nM
Aortic ring [4] = experiment: Induction of contraction in Albino Wistar rat aortic ring assessed as Emax of hU-II at 0.1 uM incubated for 30 mins in presence of hU-II (reference value: 224.8 +/- 11.71 dyne/mg); assay type: functional, Aorta; conditions: 0.5 h
Aortic ring [5] = experiment: Induction of contraction in Albino Wistar rat aortic ring assessed as Emax of hU-II at 10 uM incubated for 30 mins in presence of hU-II (reference value: 238.4 +/- 9.53 dyne/mg); assay type: functional, Aorta; conditions: 0.5 h
Aortic ring [6] = experiment: Induction of contraction in Albino Wistar rat aortic ring assessed as Emax of hU-II at 1 uM incubated for 30 mins in presence of hU-II (reference value: 214.5 +/- 10.51 dyne/mg); assay type: functional, Aorta; conditions: 0.5 h
Aortic ring [7] = experiment: Induction of contraction in Albino Wistar rat aortic ring assessed as Emax of U-II(4-11) at 0.1 uM incubated for 30 mins in presence of U-II(4-11) (reference value: 159.8 +/- 7.39 dyne/mg); assay type: functional, Aorta; conditions: 0.5 h
Aortic ring [8] = experiment: Induction of contraction in Albino Wistar rat aortic ring assessed as Emax of U-II(4-11) at 1 uM incubated for 30 mins in presence of U-II(4-11) (reference value: 159.8 +/- 7.3 dyne/mg); assay type: functional, Aorta; conditions: 0.5 h
Aortic ring [9] = experiment: Induction of contraction in Albino Wistar rat aortic ring assessed as Emax of U-II(4-11) at 10 uM incubated for 30 mins in presence of U-II(4-11) (reference value: 152.4 +/- 5.1 dyne/mg); assay type: functional, Aorta; conditions: 0.5 h
Aortic ring [10] = experiment: Induction of contraction in Albino Wistar rat aortic ring assessed as Emax of [Ala1]U-II at 0.1 uM incubated for 30 mins in presence of [Ala1]U-II (reference value: 308.1 +/- 21.4 dyne/mg); assay type: functional, Aorta; conditions: 0.5 h
Aortic ring [11] = experiment: Induction of contraction in Albino Wistar rat aortic ring assessed as Emax of [Ala1]U-II at 10 uM incubated for 30 mins in presence of [Ala1]U-II (reference value: 391.6 +/- 38.83 dyne/mg); assay type: functional, Aorta; conditions: 0.5 h
Aortic ring [12] = experiment: Induction of contraction in Albino Wistar rat aortic ring assessed as Emax of [Ala1]U-II at 1 uM incubated for 30 mins in presence of [Ala1]U-II (reference value: 153.3 +/- 10.75 dyne/mg); assay type: functional, Aorta; conditions: 0.5 h
Aortic ring [13] = experiment: Induction of contraction in Albino Wistar rat aortic ring assessed as Emax of hU-II at 10 uM incubated for 30 mins in presence of hU-II (reference value: 224.8 +/- 11.71 dyne/mg); assay type: functional, Aorta; conditions: 0.5 h
Aortic ring [14] = experiment: Induction of contraction in Albino Wistar rat aortic ring assessed as Emax of hU-II at 1 uM incubated for 30 mins in presence of hU-II (reference value: 251.4 +/- 15.43 dyne/mg); assay type: functional, Aorta; conditions: 0.5 h
Aortic ring [15] = experiment: Induction of contraction in Albino Wistar rat aortic ring assessed as Emax of hU-II at 0.1 uM incubated for 30 mins in presence of hU-II (reference value: 279.9 +/- 11.02 dyne/mg); assay type: functional, Aorta; conditions: 0.5 h
Aortic ring [16] = experiment: Induction of contraction in Albino Wistar rat aortic ring assessed as Emax of [Ala1]U-II at 10 uM incubated for 30 mins in presence of [Ala1]U-II (reference value: 308.1 +/- 21.4 dyne/mg); assay type: functional, Aorta; conditions: 0.5 h
Aortic ring [17] = experiment: Induction of contraction in Albino Wistar rat aortic ring assessed as Emax of [Ala1]U-II at 1 uM incubated for 30 mins in presence of [Ala1]U-II (reference value: 220.3 +/- 17.48 dyne/mg); assay type: functional, Aorta; conditions: 0.5 h
Aortic ring [18] = experiment: Induction of contraction in Albino Wistar rat aortic ring assessed as Emax of [Ala1]U-II at 0.1 uM incubated for 30 mins in presence of [Ala1]U-II (reference value: 323 +/- 30.45 dyne/mg); assay type: functional, Aorta; conditions: 0.5 h
Urotensin-2 receptor = target: T2, Urotensin-2 receptor (Homo sapiens, UniProt Q9UKP6); experiment: Modulation of human UTR stably expressed in HEK293 cells assessed as increase in Ca2+ level by Fura 2-AM dye based calcium mobilization assay; assay type: functional, cell-based
T2 sequence (Q9UKP6 whole entry): T1 sequence (whole entry)

CC(C)[C@H](NC(=O)[C@@H]1CSSC[C@H](NC(=O)[C@H](CC(=O)O)NC(=O)[C@@H]2CCCN2C(=O)[C@@H](NC(=O)[C@H](C)N)[C@@H](C)O)C(=O)N[C@@H](Cc2ccccc2)C(=O)N[C@@H](Cc2c[nH]c3ccccc23)C(=O)N[C@@H](CCCCN)C(=O)N[C@@H](Cc2ccc(O)cc2)C(=O)N1)C(=O)O (H-ATPDCFWKYCV-OH; disulfide 5-10)
Activity [1]: Active

CC(C)[C@H](NC(=O)[C@@H]1CSSC(C)(C)[C@H](NC(=O)[C@H](CC(=O)O)NC(=O)[C@@H]2CCCN2C(=O)[C@@H](NC(=O)[C@@H](N)CCC(=O)O)[C@@H](C)O)C(=O)N[C@@H](Cc2ccccc2)C(=O)N[C@H](Cc2c[nH]c3ccccc23)C(=O)N[C@@H](CCCN)C(=O)N[C@@H](Cc2ccc(O)cc2)C(=O)N1)C(=O)O
Activity ([2]; filed as modulator): Active
Activity (Aortic ring [3]): inactive
Emax (Aortic ring [4]): 251.6 dyn/mg
Emax (Aortic ring [5]): 327 dyn/mg
Emax (Aortic ring [6]): 143.5 dyn/mg
Emax (Aortic ring [7]): 223.4 dyn/mg
Emax (Aortic ring [8]): 166.6 dyn/mg
Emax (Aortic ring [9]): 231 dyn/mg
Emax (Aortic ring [10]): 216.19 dyn/mg
Emax (Aortic ring [11]): 727.7 dyn/mg
Emax (Aortic ring [12]): 146.8 dyn/mg

CC(C)[C@H](NC(=O)[C@@H]1CSSC(C)(C)[C@H](NC(=O)[C@@H](N)CC(=O)O)C(=O)N[C@@H](Cc2ccccc2)C(=O)N[C@H](Cc2c[nH]c3ccccc23)C(=O)N[C@@H](CCCN)C(=O)N[C@@H](Cc2ccc(O)cc2)C(=O)N1)C(=O)O (H-D[Pen]F[dW][Orn]YCV-OH; disulfide 2-7)
Activity [2]: inactive
Activity (Aortic ring [3]): inactive

CC(C)[C@H](NC(=O)[C@@H]1CSSC(C)(C)[C@H](NC(=O)[C@H](CC(=O)O)NC(=O)[C@@H]2CCCN2C(=O)[C@@H](NC(=O)[C@@H](N)CCN)[C@@H](C)O)C(=O)N[C@@H](Cc2ccccc2)C(=O)N[C@H](Cc2c[nH]c3ccccc23)C(=O)N[C@@H](CCCN)C(=O)N[C@@H](Cc2ccc(O)cc2)C(=O)N1)C(=O)O
Activity [2]: inactive
Activity (Aortic ring [3]): inactive
Emax (Aortic ring [13]): 208.6 dyn/mg
Emax (Aortic ring [14]): 397 dyn/mg
Emax (Aortic ring [15]): 164 dyn/mg
Emax (Aortic ring [7]): 98.9 dyn/mg
Emax (Aortic ring [8]): 166.4 dyn/mg
Emax (Aortic ring [9]): 119.5 dyn/mg
Emax (Aortic ring [16]): 141.2 dyn/mg
Emax (Aortic ring [17]): 99.6 dyn/mg
Emax (Aortic ring [18]): 38.23 dyn/mg

CC(C)[C@H](NC(=O)[C@@H]1CSSC[C@H](NC(=O)[C@@H](N)CC(=O)O)C(=O)N[C@@H](Cc2ccccc2)C(=O)N[C@@H](Cc2c[nH]c3ccccc23)C(=O)N[C@@H](CCCCN)C(=O)N[C@@H](Cc2ccc(O)cc2)C(=O)N1)C(=O)O (H-DCFWKYCV-OH; disulfide 2-7)
pEC50 (Urotensin-2 receptor): 8.92
